# Test results published in patent US5688799A, “9-Hydroxy-pyrido[1,2-a]pyrimidin-4-one ether derivatives” (Janssen Pharmaceutica N.V., priority 1993, dated 1997).
# Like-named read-outs stand apart in the source and are kept apart here.
# Experiments:
# [1] = system: dopamine (symptoms elicited with the dopamine agonist apomorphine); test: combined apomorphine (APO), tryptamine (TRY) and norepinephrine (NOR) test in rats: apomorphine (APO); type: in vivo; details: Rattus norvegicus, read-out: APO ED50
# [2] = system: serotonin (central symptoms, convulsions, elicited with serotonin or tryptamine); test: combined APO, TRY, NOR test in rats: tryptamine (TRY) convulsions; type: in vivo; details: Rattus norvegicus, read-out: TRY convulsions ED50
# [3] = system: serotonin (peripheral symptoms, hyperaemia, elicited with serotonin or tryptamine); test: combined APO, TRY, NOR test in rats: tryptamine (TRY) hyperaemia; type: in vivo; details: Rattus norvegicus
# [4] = system: norepinephrine (death upon administration of the α2 -agonist norepinephrine); test: animal or person; type: in vivo, rats; details: Rattus norvegicus, read-out: NOR ED50
# [5] = combined test in rats, apomorphine
# [6] = combined test in rats, tryptamine, central (convulsions)
compound,measurement,setting,value
"COC1CCCn2c1nc(C)c(CCN1CCC(c3noc4cc(F)ccc34)CC1)c2=O (racemic) [Compound 7, (±)-3-[2-[4-(6-fluoro-1,2-benzisoxazol-3-yl)-1-piperidinyl]ethyl]-6,7,8,9-tetrahydro-9-methoxy-2-methyl-4H-pyrido[1,2-a]pyrimidin-4-one]",ED50,[1]; [5],0.02 mg/kg
same,ED50,[2]; [6],0.02 mg/kg
same,ED50,[3],0.00125 mg/kg
"COc1cccn2c(=O)c(CCN3CCC(c4noc5cc(F)ccc45)CC3)c(C)nc12 [Compound 1, 3-[2-[4-(6-fluoro-1,2-benzisoxazol-3-yl)-1-piperidinyl]ethyl]-9-methoxy-2-methyl-4H-pyrido[1,2-a]pyrimidin-4-one]",ED50,[1]; [5],0.31 mg/kg
same,ED50,[2]; [6],0.16 mg/kg
same,ED50,[3],0.0025 mg/kg
"CCOCOc1cccn2c(=O)c(CCN3CCC(c4noc5cc(F)ccc45)CC3)c(C)nc12 [Compound 2, 9-(ethoxymethoxy)-3-[2-[4-(6-fluoro-1,2-benzisoxazol-3-yl)-1-piperidinyl]ethyl]-2-methyl-4H-pyrido[1,2-a]pyrimidin-4-one]",ED50,[1],1.25 mg/kg
same,ED50,[2],1.25 mg/kg
same,ED50,[4],1.25 mg/kg
same,ED50,[3],0.01 mg/kg
CCCCCCCCCCCCOc1cccn2c(=O)c(CCN3CCC(c4noc5cc(F)ccc45)CC3)c(C)nc12 [Compound 3],ED50,[1]; [5],> 10 mg/kg
same,ED50,[2]; [6],> 10 mg/kg
same,ED50,[3],1.25 mg/kg
"C=CCOc1cccn2c(=O)c(CCN3CCC(c4noc5cc(F)ccc45)CC3)c(C)nc12 [Compound 4, 3-[2-[4-(6-fluoro-1,2-benzisoxazol-3yl)-1-piperidinyl]ethyl]-2-methyl-9-(2-propenyloxy)-4H-pyrido[1,2-a]pyrimidin-4-one]",ED50,[1]; [5],0.31 mg/kg
same,ED50,[2]; [6],0.31 mg/kg
same,ED50,[4],0.16 mg/kg
same,ED50,[3],0.005 mg/kg
Cc1nc2c(OCCCC#N)cccn2c(=O)c1CCN1CCC(c2noc3cc(F)ccc23)CC1 [Compound 5],ED50,[1],1.25 mg/kg
same,ED50,[2],1.25 mg/kg
same,ED50,[4],1.25 mg/kg
same,ED50,[3],0.005 mg/kg
"C#CCOc1cccn2c(=O)c(CCN3CCC(c4noc5cc(F)ccc45)CC3)c(C)nc12 [Compound 6, 3-[2-[4-(6-fluoro-1,2-benzisoxazol-3-yl)-1-piperidinyl]ethyl]-2-methyl-9-(2-propynyloxy)-4H-pyrido[1,2-a]pyrimidin-4-one]",ED50,[1]; [5],< 0.63 mg/kg
same,ED50,[2]; [6],< 0.63 mg/kg
same,ED50,[4],< 0.63 mg/kg
CCOCOC1CCCn2c1nc(C)c(CCN1CCC(c3noc4cc(F)ccc34)CC1)c2=O (stereo not drawn) [Compound 8],ED50,[1]; [5],0.31 mg/kg
same,ED50,[2]; [6],0.16 mg/kg
same,ED50,[3],0.00125 mg/kg
CCCCCCCCCCCCOC1CCCn2c1nc(C)c(CCN1CCC(c3noc4cc(F)ccc34)CC1)c2=O (stereo not drawn) [Compound 9],ED50,[1]; [5],10 mg/kg
same,ED50,[2]; [6],1.25 mg/kg
same,ED50,[4],2.5 mg/kg
same,ED50,[3],0.01 mg/kg
"CCCOC1CCCn2c1nc(C)c(CCN1CCC(c3noc4cc(F)ccc34)CC1)c2=O (stereo not drawn) [Compound 10, 3-[2-[4-(6-fluoro-1,2-benzisoxazol-3-yl)-1-piperidinyl]ethyl]-6,7,8,9-tetrahydro-2-methyl-9-propoxy-4H-pyrido[1,2-a]pyrimidin-4-one]",ED50,[1]; [5],0.08 mg/kg
same,ED50,[2]; [6],0.08 mg/kg
same,ED50,[4],0.16 mg/kg
same,ED50,[3],0.002 mg/kg
COCCOC1CCCn2c1nc(C)c(CCN1CCC(c3noc4cc(F)ccc34)CC1)c2=O (stereo not drawn) [Compound 11],ED50,[1]; [5],0.31 mg/kg
same,ED50,[2]; [6],0.63 mg/kg
same,ED50,[4],1.25 mg/kg
same,ED50,[3],0.00125 mg/kg
